From patent publication US20120309796A1, “BENZOCYCLOHEPTENE ACETIC ACIDS” (priority 2011, published 2012) come the findings set out here.

The target in one test is T1, human CRTH2 (Homo sapiens, UniProt Q9Y5Y4).
T1 sequence (Q9Y5Y4 1-395): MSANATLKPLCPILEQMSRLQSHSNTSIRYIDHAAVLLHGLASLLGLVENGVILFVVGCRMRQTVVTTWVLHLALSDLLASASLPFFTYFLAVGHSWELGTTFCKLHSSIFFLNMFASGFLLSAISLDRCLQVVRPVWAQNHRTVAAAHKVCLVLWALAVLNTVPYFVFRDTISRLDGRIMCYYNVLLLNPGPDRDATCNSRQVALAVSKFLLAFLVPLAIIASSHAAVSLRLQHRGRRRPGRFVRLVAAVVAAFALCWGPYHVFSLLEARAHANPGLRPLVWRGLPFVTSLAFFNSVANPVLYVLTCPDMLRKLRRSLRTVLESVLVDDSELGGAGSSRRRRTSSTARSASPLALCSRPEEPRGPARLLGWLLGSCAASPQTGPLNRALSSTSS
The experiment in a line: Human CRTH2 Receptor Binding Assay (whole cell, [3H]ramatroban competition). The conditions noted are these: CHO-K1 cells expressing human CRTH2 and G-alpha16; 20 nM [3H]ramatroban; 1 hour, room temperature. Also noted: two mammalian expression vectors that harbored human CRTH2 and G-alpha16 cDNAs; expressed in transfected cells. The essentials: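 CHO-K1 cells stably co-expressing human CRTH2 and G-alpha16 (1.5×10^5/reaction) incubated 1 h at room temperature with 20 nM [3H]ramatroban in PBS, 10 mM MgCl2, 0.06% BSA. Non-specific binding defined with 10 μM 15(R)-15-methyl PGD2; IC50 from 7-point inhibition of specific binding, 4-parameter logistic fit.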

Test [1] has as its target T2, thromboxane A2 receptor (TP) (Homo sapiens, UniProt P21731).
T2 construct: using human platelets as the source of the receptor; from tissue; host or cells: human platelets (whole platelets, 5x10^7 per well)
T2 sequence (P21731 1-343): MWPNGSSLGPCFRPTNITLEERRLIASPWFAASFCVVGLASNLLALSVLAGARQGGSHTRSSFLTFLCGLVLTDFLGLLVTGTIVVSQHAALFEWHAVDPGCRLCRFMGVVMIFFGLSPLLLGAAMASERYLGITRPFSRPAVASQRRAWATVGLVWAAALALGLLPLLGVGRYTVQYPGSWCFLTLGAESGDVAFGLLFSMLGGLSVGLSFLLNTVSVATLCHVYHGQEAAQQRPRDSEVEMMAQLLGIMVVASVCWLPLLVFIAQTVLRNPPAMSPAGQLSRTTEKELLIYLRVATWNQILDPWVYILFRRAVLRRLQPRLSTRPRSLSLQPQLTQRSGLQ
Kind of test: Human Thromboxane A2 Receptor Binding Assay. Particulars: human platelets; 10 nM [3H]SQ29548; 1 hour, room temperature. The source says: The thromboxane A2 receptor (TP) plays a key role in hemostasis as its abnormality leads to bleeding disorders. To avoid the potential liability of bleeding disorders, the binding activity of certain compounds of the present invention against TP was monitored by a receptor binding assay using human platelets as the source of the receptor and [^3H]SQ29548 (generically named (5Z)-[5,6-^3H]-7-[(1S,2R,3R,4R)-3-[[2-[(phenylamino)carbonyl]hydrazinyl]methyl]-7-oxabicyclo[2.2.1]hept-2-yl]-5-heptenoic acid, from PerkinElmer Inc.) as the competing radioactive ligand.
The TP binding reactions (0.2 mL) were performed in 96-well plates at room temperature in PBS containing 5×10^7 platelets, 10 mM MgCl2, 0.06% BSA, 10 nM [^3H]SQ29548, and the test compound at various concentrations. […] The radioactivities bound to the platelets were determined using a microplate scintillation counter (TopCount® NXT, from PerkinElmer Inc.) after adding 50 μL of Microscint™ 20 scintillation fluid (from PerkinElmer Inc.) to each well of the filter plates. The radioactivity from non-specific binding was determined by replacing the compound with 10 μM of ramatroban (BAY-u3405, from Cayman Chemical Company) in the reaction mixtures. The radioactivity bound to the platelets in the absence of compound (total binding) was determined by replacing the compound with 0.25% of DMSO in the reaction mixture. […]

The IC50 is the point on the concentration scale where inhibition reaches its midpoint. High values mean weaker potency in that assay, low ones greater potency in that assay. For the molecule `O=C(O)COc1cccc2c1CCCCC2NS(=O)(=O)c1cc(C(F)(F)F)cc(C(F)(F)F)c1` (single isomer, unassigned) [Example 46, [5-(3,5-Bis-trifluoromethyl-benzenesulfonylamino)-6,7,8,9-tetrahydro-5H-benzocyclohepten-1-yloxy]-acetic acid], the half-maximal inhibitory concentration (IC50) at human CRTH2 was 24.5 nM; in test [1], 3610 nM.

`O=C(O)COc1cccc2c1CCCCC2NS(=O)(=O)c1cc(C(F)(F)F)cc(C(F)(F)F)c1` (stereo not shown) [Example 1, [5-(3,5-Bis-trifluoromethyl-benzenesulfonylamino)-6,7,8,9-tetrahydro-5H-benzocyclohepten-1-yloxy]-acetic acid]: the figures for the 50% inhibitory concentration (IC50) (on human CRTH2; in test [1]) were 8.9 nM and 642 nM, respectively.
